The text below walks through data of ChEMBL document CHEMBL1138956, “Synthesis and in vitro anti-tumor activity of N-{1-[(3-thioxo-5,6-dihydroimidazo[2,1-c][1,2,4]thiadiazol-7-ylthio)thiocarbonyl]-2-imidazolidene}arylsulfonamides” (2006).

Active and inactive are the calls of the source. The rule behind the calls is not given here. Bounds are passed on as bounds.

For one experiment, the system named is KYSE-510. Description: Antitumor activity against KYSE510 cell line after 96 hrs using crystal violet. Type of experiment: functional. To be noted: Homo sapiens, KYSE-510, 96 h.
In the next experiment the test system is RXF 393. Description: Antitumor activity against RXF393 cell line. Type of experiment: functional, cell-based. The note with it: Homo sapiens.
A further experiment has as its system SF-539. Description: Antitumor activity against SF539 cell line. The experiment is classed as functional, cell-based. The note with it: Homo sapiens.
A further experiment relates to SR. Kind of experiment: Antitumor activity against SR cell line. The experiment is classed as functional, cell-based. To be noted: Homo sapiens.
The subject of the next experiment is CCRF-CEM. Description: Antitumor activity against CCRF-CEM cell line. The experiment is classed as functional, cell-based. The note with it: Homo sapiens.
A further experiment has as its system HL-60. Kind of experiment: Antitumor activity against HL60(TB) cell line. Type of experiment: functional, cell-based. To be noted: Homo sapiens.
In the next experiment the test system is 5637. Kind of experiment: Antitumor activity against 5637 cell line after 96 hrs using crystal violet. Type of experiment: functional. The note with it: Homo sapiens, 5637, 96 h.
A further experiment relates to SK-OV-3. Description: Antitumor activity against SKOV3 cell line. Type of experiment: functional, cell-based. To be noted: Homo sapiens.
Another experiment deals with LOX IMVI. Kind of experiment: Antitumor activity against LOXIMVI cell line. The experiment is classed as functional, cell-based. The note with it: Homo sapiens.
The test system of the next experiment is UO-31. Description: Antitumor activity against UO31 cell line. The experiment is classed as functional, cell-based. The note with it: Homo sapiens.
Another experiment has as its system RPMI-8226. Description: Antitumor activity against RPMI8226 cell line. The experiment is classed as functional, cell-based. The note with it: Homo sapiens.
In another experiment the test system is HOP-92. Kind of experiment: Antitumor activity against HOP92 cell line. Type of experiment: functional, cell-based. To be noted: Homo sapiens.
The next experiment deals with ACHN. Kind of experiment: Antitumor activity against ACHN cell line. Type of experiment: functional, cell-based. To be noted: Homo sapiens.

In the experiment on KYSE-510, `COc1ccc(S(=O)(=O)NC2=NCCN2C(=S)SN2CCn3c2nsc3=S)cc1OC` came in with a GI50 of at least 20 µM. Further, the result in the experiment on RXF 393 was Active. In the case of `O=S(=O)(NC1=NCCN1C(=S)SN1CCn2c1nsc2=S)c1ccc(OC(F)(F)F)cc1`, the outcome in the experiment with SF-539 and in the experiment on SR was Active. Also, the 50% growth inhibitory concentration (GI50) in the experiment with KYSE-510 was at least 20 µM. Regarding `O=S(=O)(NC1=NCCN1C(=S)SN1CCn2c1nsc2=S)c1ccccc1Cl`, in the experiment on KYSE-510, the GI50 is at least 20 µM. For the same compound, the outcome in the experiment with CCRF-CEM and in the experiment with HL-60 was Active. Turning to `O=[N+]([O-])c1ccc(S(=O)(=O)NC2=NCCN2C(=S)SN2CCn3c2nsc3=S)cc1`, the GI50 in the experiment with KYSE-510 is at least 20 µM; in the experiment with 5637, 3.67 µM. The compound `Cc1ccc(S(=O)(=O)NC2=NCCN2C(=S)SN2CCn3c2nsc3=S)cc1` registered a GI50 in the experiment on KYSE-510 of at least 20 µM. Further, the outcome in the experiment on SK-OV-3 and with LOX IMVI was Active. Turning to `COc1cc(C)ccc1S(=O)(=O)NC1=NCCN1C(=S)SN1CCn2c1nsc2=S`, the GI50 in the experiment on KYSE-510 is at least 20 µM. For the compound `O=S(=O)(NC1=NCCN1C(=S)SN1CCn2c1nsc2=S)c1ccc(F)c(Cl)c1`, in the experiment on KYSE-510, the GI50 is at least 20 µM. Still for that read-out and setting: the figure for `O=S(=O)(NC1=NCCN1C(=S)SN1CCn2c1nsc2=S)c1ccc(Cl)c(Cl)c1` is at least 20 µM.

`O=S(=O)(NC1=NCCN1C(=S)SN1CCn2c1nsc2=S)c1cccc(Cl)c1`: the GI50 with KYSE-510 is at least 20 µM. In addition, the outcome in the experiment with CCRF-CEM and in the experiment with RXF 393 was Active.

The compound `COc1ccc(OC)c(S(=O)(=O)NC2=NCCN2C(=S)SN2CCn3c2nsc3=S)c1` returned a GI50 with KYSE-510 of at least 20 µM. For the compound `O=S(=O)(NC1=NCCN1C(=S)SN1CCn2c1nsc2=S)c1ccc(Cl)cc1`, the outcome in the experiment with SF-539 and in the experiment with UO-31 was Active. In addition, the GI50 in the experiment with KYSE-510 is at least 20 µM. In the case of `O=S(=O)(NC1=NCCN1C(=S)SN1CCn2c1nsc2=S)c1ccc(C(F)(F)F)cc1`, in the experiment on KYSE-510, the GI50 is at least 20 µM.

Compound `COc1ccc(S(=O)(=O)NC2=NCCN2C(=S)SN2CCn3c2nsc3=S)cc1` yielded a GI50 in the experiment on KYSE-510 of at least 20 µM. For the same compound, the outcome with RXF 393 and in the experiment on UO-31 was Active. In the case of `O=S(=O)(NC1=NCCN1C(=S)SN1CCn2c1nsc2=S)c1cccc2ccccc12`, in the experiment with KYSE-510, the GI50 was at least 20 µM. The result in the experiment on CCRF-CEM and in the experiment on RPMI-8226 was Active.

Turning to `O=S(=O)(NC1=NCCN1C(=S)SN1CCn2c1nsc2=S)c1ccc(Oc2ccccc2)cc1`, the GI50 in the experiment on KYSE-510 is at least 20 µM. For the same compound, the result in the experiment with SR and in the experiment on HL-60 was Active.

For the compound `O=S(=O)(NC1=NCCN1C(=S)SN1CCn2c1nsc2=S)c1ccc(Cl)c(Cl)c1Cl`, the GI50 with KYSE-510 was at least 20 µM. With `O=S(=O)(NC1=NCCN1C(=S)SN1CCn2c1nsc2=S)c1ccc(Br)cc1`, the result in the experiment on HOP-92 and in the experiment with RPMI-8226 was Active. In the experiment on KYSE-510, the GI50 is at least 20 µM. Compound `COc1cccc(S(=O)(=O)NC2=NCCN2C(=S)SN2CCn3c2nsc3=S)c1` came in with a GI50 with KYSE-510 of at least 20 µM. The result in the experiment with ACHN and with LOX IMVI was Active. Turning to `CC(=O)Nc1ccc(S(=O)(=O)NC2=NCCN2C(=S)SN2CCn3c2nsc3=S)cc1`, the GI50 in the experiment with KYSE-510 is at least 20 µM. Same read-out and setting: under `O=S(=O)(NC1=NCCN1C(=S)SN1CCn2c1nsc2=S)c1cc(Cl)cc(Cl)c1` stands at least 20 µM; under `Cc1cc(C)c(S(=O)(=O)NC2=NCCN2C(=S)SN2CCn3c2nsc3=S)c(C)c1`, at least 20 µM. Still for that read-out and setting: under `O=S(=O)(NC1=NCCN1C(=S)SN1CCn2c1nsc2=S)c1ccc2ccccc2c1` stands at least 20 µM; under `O=S(=O)(NC1=NCCN1C(=S)SN1CCn2c1nsc2=S)c1ccccc1`, at least 20 µM; under `O=S(=O)(NC1=NCCN1C(=S)SN1CCn2c1nsc2=S)c1ccc(-c2ccccc2)cc1`, at least 20 µM.

`O=S(=O)(NC1=NCCN1C(=S)SN1CCn2c1nsc2=S)c1ccc(Cl)cc1Cl` yielded a concentration for 50% growth inhibition (GI50) in the experiment on KYSE-510 of at least 20 µM.

The compound `O=S(=O)(NC1=NCCN1C(=S)SN1CCn2c1nsc2=S)c1cccc(OC(F)(F)F)c1` displayed a GI50 with KYSE-510 of at least 20 µM. Also, the result in the experiment on CCRF-CEM and in the experiment on RPMI-8226 was Active.
